Patent publication US9738634B2, “Heterocyclic amide compound and herbicide” (SYNGENTA PARTICIPATIONS AG, priority 2013, dated 2017)

Columns and labels:
Type in all cases: in vivo
Settings in all cases: treatment dosage 320 g/ha
barnyard grass [1] = assay: Test Example 4: weedkilling efficacy by foliar treatment; F: barnyard grass
Procedure, shortened: (§1)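 Seeds are spot-sown into sterilized diluvial soil and covered with about 1.5 cm of soil. After 14 days' greenhouse growth at 25 to 30° C, plants are sprayed on stems and leaves with diluted emulsion at the stated g/ha rate, then scored at 3 weeks.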

oval-leafed pondweed [2] = assay: Test Example 2: weedkilling efficacy, growth period weed treatment in the submerged state; C: oval-leafed pondweed
Procedure, shortened: (§2)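 First, alluvial soil in pots is flooded to 4 cm and mixed seed is sown. Next, plants grow in a greenhouse at 25 to 30° C until the 1-2 leaf stage. Then diluted emulsion is applied onto the water surface at the given g/ha rate, and injury is assessed after 3 weeks.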

rapeseed [3] = assay: Test Example 4: foliar treatment, effect on crop; g: rapeseed
Procedure, shortened: as §1

green foxtail [4] = assay: Test Example 3: weedkilling efficacy through soil treatment; E: green foxtail
Procedure, shortened: (§3)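 Crop and weed responses were judged three weeks after a uniform surface spray of the water-diluted emulsion at the given g/ha rate. Seeds sat beneath about 1.5 cm of sterilized diluvial soil, and boxes stood in a greenhouse at 25 to 30° C.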

common wind-grass [5] = assay: Test Example 3: weedkilling efficacy through soil treatment; J: common wind-grass
Procedure, shortened: as §3

birds-eye speedwell [6] = assay: Test Example 4: weedkilling efficacy by foliar treatment; p: birds-eye speedwell
Procedure, shortened: as §1

soybean [7] = assay: Test Example 4: foliar treatment, effect on crop; d: soybean
Procedure, shortened: as §1

transplanted rice = assay: Test Example 1: preemergent weed treatment in the submerged state, effect on crop; a: transplanted rice
Procedure, shortened: (§4)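 Emulsion diluted with water to the specified per-hectare dosage is applied onto flood water (4 cm) over alluvial soil on the sowing day, with barnyard grass, bulrush and pondweed seeded and rice (2.5-leaf) transplanted; plants grow at 25–30 °C and are rated at 3 weeks.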

black-grass [8] = assay: Test Example 4: weedkilling efficacy by foliar treatment; H: black-grass
Procedure, shortened: as §1

green foxtail [9] = assay: Test Example 4: weedkilling efficacy by foliar treatment; E: green foxtail
Procedure, shortened: as §1

common wind-grass [10] = assay: Test Example 4: weedkilling efficacy by foliar treatment; J: common wind-grass
Procedure, shortened: as §1

wheat [11] = assay: Test Example 4: foliar treatment, effect on crop; e: wheat
Procedure, shortened: as §1

wild oat [12] = assay: Test Example 4: weedkilling efficacy by foliar treatment; G: wild oat
Procedure, shortened: as §1

soybean [13] = assay: Test Example 3: soil treatment, effect on crop; d: soybean
Procedure, shortened: as §3

fig-leafed goosefoot [14] = assay: Test Example 3: weedkilling efficacy through soil treatment; M: fig-leafed goosefoot
Procedure, shortened: as §3

barnyard grass [15] = assay: Test Example 2: weedkilling efficacy, growth period weed treatment in the submerged state; A: barnyard grass
Procedure, shortened: as §2

corn [16] = assay: Test Example 3: soil treatment, effect on crop; c: corn
Procedure, shortened: as §3

bulrush [17] = assay: Test Example 1: weedkilling efficacy, preemergent weed treatment in the submerged state; B: bulrush
Procedure, shortened: as §4

corn [18] = assay: Test Example 4: foliar treatment, effect on crop; c: corn
Procedure, shortened: as §1

Italian ryegrass [19] = assay: Test Example 3: weedkilling efficacy through soil treatment; I: Italian ryegrass
Procedure, shortened: as §3

chickweed [20] = assay: Test Example 4: weedkilling efficacy by foliar treatment; N: chickweed
Procedure, shortened: as §1

barnyard grass [21] = assay: Test Example 3: weedkilling efficacy through soil treatment; F: barnyard grass
Procedure, shortened: as §3

Italian ryegrass [22] = assay: Test Example 4: weedkilling efficacy by foliar treatment; I: Italian ryegrass
Procedure, shortened: as §1

wheat [23] = assay: Test Example 3: soil treatment, effect on crop; e: wheat
Procedure, shortened: as §3

redroot pigweed [24] = assay: Test Example 3: weedkilling efficacy through soil treatment; L: redroot pigweed
Procedure, shortened: as §3

crabgrass [25] = assay: Test Example 4: weedkilling efficacy by foliar treatment; D: crabgrass
Procedure, shortened: as §1

catchweed = assay: Test Example 4: weedkilling efficacy by foliar treatment; O: catchweed
Procedure, shortened: as §1

chickweed [26] = assay: Test Example 3: weedkilling efficacy through soil treatment; N: chickweed
Procedure, shortened: as §3

bulrush [27] = assay: Test Example 2: weedkilling efficacy, growth period weed treatment in the submerged state; B: bulrush
Procedure, shortened: as §2

black-grass [28] = assay: Test Example 3: weedkilling efficacy through soil treatment; H: black-grass
Procedure, shortened: as §3

rapeseed [29] = assay: Test Example 3: soil treatment, effect on crop; g: rapeseed
Procedure, shortened: as §3

Indian mallow [30] = assay: Test Example 3: weedkilling efficacy through soil treatment; K: Indian mallow
Procedure, shortened: as §3

directly sown rice [31] = assay: Test Example 4: foliar treatment, effect on crop; b: directly sown rice
Procedure, shortened: as §1

oval-leafed pondweed [32] = assay: Test Example 1: weedkilling efficacy, preemergent weed treatment in the submerged state; C: oval-leafed pondweed
Procedure, shortened: as §4

crabgrass [33] = assay: Test Example 3: weedkilling efficacy through soil treatment; D: crabgrass
Procedure, shortened: as §3

barnyard grass [34] = assay: Test Example 1: weedkilling efficacy, preemergent weed treatment in the submerged state; A: barnyard grass
Procedure, shortened: as §4

Indian mallow [35] = assay: Test Example 4: weedkilling efficacy by foliar treatment; K: Indian mallow
Procedure, shortened: as §1

beet [36] = assay: Test Example 3: soil treatment, effect on crop; f: beet
Procedure, shortened: as §3

beet [37] = assay: Test Example 4: foliar treatment, effect on crop; f: beet
Procedure, shortened: as §1

redroot pigweed [38] = assay: Test Example 4: weedkilling efficacy by foliar treatment; L: redroot pigweed
Procedure, shortened: as §1

fig-leafed goosefoot [39] = assay: Test Example 4: weedkilling efficacy by foliar treatment; M: fig-leafed goosefoot
Procedure, shortened: as §1

wild oat [40] = assay: Test Example 3: weedkilling efficacy through soil treatment; G: wild oat
Procedure, shortened: as §3

directly sown rice [41] = assay: Test Example 3: soil treatment, effect on crop; b: directly sown rice
Procedure, shortened: as §3

birds-eye speedwell [42] = assay: Test Example 3: weedkilling efficacy through soil treatment; p: birds-eye speedwell
Procedure, shortened: as §3

Structure (SMILES): COc1cc(F)nc(NC(=O)C(C)(C)N2COC(C)=C(c3ccccc3)C2=O)c1 [B-2-41]
- F (barnyard grass) weedkilling efficacy grade (barnyard grass [1]): 5 (weed kill ratio 90% or more, (practically complete withering))
- C (oval-leafed pondweed) weedkilling efficacy grade (oval-leafed pondweed [2]): 5 (weed kill ratio 90% or more, (practically complete withering))
- g (rapeseed) effect on crop grade (rapeseed [3]): 5 (weed kill ratio 90% or more, (practically complete withering))
- E (green foxtail) weedkilling efficacy grade (green foxtail [4]): 5 (weed kill ratio 90% or more, (practically complete withering))
- J (common wind-grass) weedkilling efficacy grade (common wind-grass [5]): 5 (weed kill ratio 90% or more, (practically complete withering))
- P (birds-eye speedwell) weedkilling efficacy grade (birds-eye speedwell [6]): 5 (weed kill ratio 90% or more, (practically complete withering))
- d (soybean) effect on crop grade (soybean [7]): 4 (weed kill ratio 70% or more, less than 90%)
- a (transplanted rice) effect on crop grade (transplanted rice): 3 (weed kill ratio 40% or more, less than 70%)
- H (black-grass) weedkilling efficacy grade (black-grass [8]): 5 (weed kill ratio 90% or more, (practically complete withering))
- E (green foxtail) weedkilling efficacy grade (green foxtail [9]): 5 (weed kill ratio 90% or more, (practically complete withering))
- J (common wind-grass) weedkilling efficacy grade (common wind-grass [10]): 5 (weed kill ratio 90% or more, (practically complete withering))
- e (wheat) effect on crop grade (wheat [11]): 0 (weed kill ratio 5% or less (practically no effect))
- G (wild oat) weedkilling efficacy grade (wild oat [12]): 3 (weed kill ratio 40% or more, less than 70%)
- d (soybean) effect on crop grade (soybean [13]): 0 (weed kill ratio 5% or less (practically no effect))
- M (fig-leafed goosefoot) weedkilling efficacy grade (fig-leafed goosefoot [14]): 4 (weed kill ratio 70% or more, less than 90%)
- A (barnyard grass) weedkilling efficacy grade (barnyard grass [15]): 5 (weed kill ratio 90% or more, (practically complete withering))
- c (corn) effect on crop grade (corn [16]): 0 (weed kill ratio 5% or less (practically no effect))
- B (bulrush) weedkilling efficacy grade (bulrush [17]): 5 (weed kill ratio 90% or more, (practically complete withering))
- c (corn) effect on crop grade (corn [18]): 4 (weed kill ratio 70% or more, less than 90%)
- I (Italian ryegrass) weedkilling efficacy grade (Italian ryegrass [19]): 5 (weed kill ratio 90% or more, (practically complete withering))
- N (chickweed) weedkilling efficacy grade (chickweed [20]): 4 (weed kill ratio 70% or more, less than 90%)
- F (barnyard grass) weedkilling efficacy grade (barnyard grass [21]): 5 (weed kill ratio 90% or more, (practically complete withering))
- I (Italian ryegrass) weedkilling efficacy grade (Italian ryegrass [22]): 5 (weed kill ratio 90% or more, (practically complete withering))
- e (wheat) effect on crop grade (wheat [23]): 0 (weed kill ratio 5% or less (practically no effect))
- L (redroot pigweed) weedkilling efficacy grade (redroot pigweed [24]): 3 (weed kill ratio 40% or more, less than 70%)
- D (crabgrass) weedkilling efficacy grade (crabgrass [25]): 5 (weed kill ratio 90% or more, (practically complete withering))
- O (catchweed) weedkilling efficacy grade (catchweed): 5 (weed kill ratio 90% or more, (practically complete withering))
- N (chickweed) weedkilling efficacy grade (chickweed [26]): 4 (weed kill ratio 70% or more, less than 90%)
- B (bulrush) weedkilling efficacy grade (bulrush [27]): 5 (weed kill ratio 90% or more, (practically complete withering))
- H (black-grass) weedkilling efficacy grade (black-grass [28]): 5 (weed kill ratio 90% or more, (practically complete withering))
- g (rapeseed) effect on crop grade (rapeseed [29]): 4 (weed kill ratio 70% or more, less than 90%)
- K (Indian mallow) weedkilling efficacy grade (Indian mallow [30]): 2 (weed kill ratio 20% or more, less than 40%)
- b (directly sown rice) effect on crop grade (directly sown rice [31]): 4 (weed kill ratio 70% or more, less than 90%)
- C (oval-leafed pondweed) weedkilling efficacy grade (oval-leafed pondweed [32]): 5 (weed kill ratio 90% or more, (practically complete withering))
- D (crabgrass) weedkilling efficacy grade (crabgrass [33]): 5 (weed kill ratio 90% or more, (practically complete withering))
- A (barnyard grass) weedkilling efficacy grade (barnyard grass [34]): 5 (weed kill ratio 90% or more, (practically complete withering))
- K (Indian mallow) weedkilling efficacy grade (Indian mallow [35]): 5 (weed kill ratio 90% or more, (practically complete withering))
- f (beet) effect on crop grade (beet [36]): 3 (weed kill ratio 40% or more, less than 70%)
- f (beet) effect on crop grade (beet [37]): 4 (weed kill ratio 70% or more, less than 90%)
- L (redroot pigweed) weedkilling efficacy grade (redroot pigweed [38]): 4 (weed kill ratio 70% or more, less than 90%)
- M (fig-leafed goosefoot) weedkilling efficacy grade (fig-leafed goosefoot [39]): 3 (weed kill ratio 40% or more, less than 70%)
- G (wild oat) weedkilling efficacy grade (wild oat [40]): 3 (weed kill ratio 40% or more, less than 70%)
- b (directly sown rice) effect on crop grade (directly sown rice [41]): 4 (weed kill ratio 70% or more, less than 90%)
- P (birds-eye speedwell) weedkilling efficacy grade (birds-eye speedwell [42]): 5 (weed kill ratio 90% or more, (practically complete withering))
